Assay results reported in patent US20260014180A1, “BIOACTIVES AND THEIR USES” (AREPA IP LIMITED, priority 2022, published 2026).

Tests used:
MAO = conditions: cited from earlier work
MAO-A = target: T1, MAO-A (Homo sapiens, UniProt P21397); conditions: in vivo; cited from earlier work
T1 construct: purchased Sigma-Aldrich MAK295/296
T1 sequence (P21397 1-527): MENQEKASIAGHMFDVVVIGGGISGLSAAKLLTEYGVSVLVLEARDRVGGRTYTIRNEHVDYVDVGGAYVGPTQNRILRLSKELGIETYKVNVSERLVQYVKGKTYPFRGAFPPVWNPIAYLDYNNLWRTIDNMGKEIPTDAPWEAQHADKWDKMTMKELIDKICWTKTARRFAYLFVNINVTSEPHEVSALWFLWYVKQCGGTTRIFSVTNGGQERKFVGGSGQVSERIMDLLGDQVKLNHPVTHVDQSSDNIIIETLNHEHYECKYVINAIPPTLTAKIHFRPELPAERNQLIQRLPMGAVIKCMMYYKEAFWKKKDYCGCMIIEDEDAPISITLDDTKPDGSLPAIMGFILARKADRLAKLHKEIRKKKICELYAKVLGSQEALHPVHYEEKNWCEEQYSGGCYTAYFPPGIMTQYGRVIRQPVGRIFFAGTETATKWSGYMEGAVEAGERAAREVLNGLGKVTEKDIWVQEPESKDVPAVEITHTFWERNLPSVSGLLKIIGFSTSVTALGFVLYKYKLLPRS

MAO-B = target: T2, MAO-B (Sus scrofa, UniProt Q6PLK3); test: S9 liver fraction kynuramine/4HQ LCMS assay, dilution series (Examples 5 and 6); format: biochemical; conditions: read-out: 50% inhibition concentration (equivalent); porcine S9 fraction, kynuramine, 1 hr 37 C
T2 sequence (Q6PLK3 2-520): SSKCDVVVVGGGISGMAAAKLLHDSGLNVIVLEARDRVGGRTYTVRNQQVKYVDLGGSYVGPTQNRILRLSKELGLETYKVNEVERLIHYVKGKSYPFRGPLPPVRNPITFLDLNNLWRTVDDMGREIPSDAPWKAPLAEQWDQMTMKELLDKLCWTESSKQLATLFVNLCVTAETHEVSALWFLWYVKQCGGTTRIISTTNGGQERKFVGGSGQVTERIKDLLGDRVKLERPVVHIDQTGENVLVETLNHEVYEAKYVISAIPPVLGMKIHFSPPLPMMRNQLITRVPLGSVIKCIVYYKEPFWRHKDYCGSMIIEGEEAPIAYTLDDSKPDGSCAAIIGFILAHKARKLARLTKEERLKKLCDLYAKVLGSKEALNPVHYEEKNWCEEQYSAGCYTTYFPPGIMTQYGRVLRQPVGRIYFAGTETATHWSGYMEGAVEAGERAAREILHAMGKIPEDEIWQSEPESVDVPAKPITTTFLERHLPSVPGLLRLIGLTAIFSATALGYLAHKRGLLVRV
Protocol: We used a porcine S9 liver microsome fraction as the source of the MAO-A and MAO-B enzymes.
The S9 porcine fraction was mixed with a specific MAO substrate (kynuramine) and mixed with the test sample and buffer. After 1 hr at 37° C. the reaction was halted by cooling and addition of 2N NaOH and acetonitrile. The centrifuged sample was then analysed using LCMS and the level of 4-quinolol (4HQ) product measured.
The S9 liver microsome fraction containing the crude enzyme mix was from a frozen bulk sample derived from porcine liver.
Samples were prepared in a 6-well plate (deep well format with 1.1 ml strip tubes). The assay was performed by diluting the crude S9 fraction with buffer (PBS, PH 7.4, diluted 1 in 5, 150 μl) and adding the test sample dissolved in buffer (75 ul). An aliquot of kynuramine was added (10 μl of 1 mg/ml) and the plate was placed in a 37 C water bath for 1 hr. The plate was cooled in ice water before addition of 20 μl 2N NaOH followed by 250 μl acetonitrile. The individual strip tubes were centrifuged, and samples taken from each for LCMS analysis.
The LCMS analysis was performed using a Cyano HPLC column eluted with 0.1% formic in water and acetonitrile. The LC run was isocratic mode (40% Acetonitrile) and the relative levels of 4 hydroxy quinoline (4HQ) and kynuramine determined from peak areas. […] Kynuramine is converted to 4HQ by the MAO-B enzyme. […]

[1] = human, in vivo
Protocol: Subjective feeling questionnaires and venous blood samples were collected at various timepoints over 8 h. […] Participants and trial coordinators were masked as to which intervention drink participants consumed. Before each trial day, participants excluded foods and supplements high in polyphenol compounds from their diet, for 24 h. They fasted for at least 10 h before consuming an Almond with Vanilla One Square Meal Bar® (Cookie Time Ltd) for breakfast, 2 h before the start of the trial. Participants arrived at the PFR Clinical Facility, where they were made comfortable. After 5 min at rest, they completed visual analogue scale (VAS) subjective feelings questionnaires and then donated a venous blood sample. After which, they were served their intervention beverage and were instructed to consume it as quickly as possible. […]
The plasma samples (350 μL) were spiked with malvidin 3-O-galactoside and further acidified with phosphoric acid prior to clean up on a SOLAμ™ Solid Phase Extraction plate. […] Quantifications of individual and total anthocyanins were performed using the internal standard ratio method using MultiQuant software, and all results are reported as cyanidin 3-O-glucoside equivalents. Quantification of sarmentosin was performed using an external reference standard supplied by Stephen Bloor (Callaghan Institute).

MAO-B in platelets = target: T3, MAO-B in platelets (Homo sapiens, UniProt P27338); conditions: 100 mg dose, cited from earlier work
T3 construct: host or cells: platelets
T3 sequence (P27338 1-520): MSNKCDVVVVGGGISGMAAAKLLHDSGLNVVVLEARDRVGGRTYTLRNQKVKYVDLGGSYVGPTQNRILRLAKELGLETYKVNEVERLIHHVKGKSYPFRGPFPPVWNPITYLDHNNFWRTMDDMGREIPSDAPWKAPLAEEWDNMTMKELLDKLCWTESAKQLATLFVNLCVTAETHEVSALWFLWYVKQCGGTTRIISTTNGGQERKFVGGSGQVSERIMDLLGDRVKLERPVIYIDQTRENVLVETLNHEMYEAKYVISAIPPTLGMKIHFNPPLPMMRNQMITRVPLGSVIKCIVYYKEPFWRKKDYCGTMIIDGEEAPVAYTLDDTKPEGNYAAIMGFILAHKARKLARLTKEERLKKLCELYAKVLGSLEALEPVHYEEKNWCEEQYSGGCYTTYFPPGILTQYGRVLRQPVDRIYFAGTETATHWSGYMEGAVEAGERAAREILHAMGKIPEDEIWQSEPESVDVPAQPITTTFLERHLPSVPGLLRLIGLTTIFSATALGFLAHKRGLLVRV

[2] = in vivo; cited from earlier work

Q: For `O=c1c(O)c(-c2ccc(O)c(O)c2)oc2cc(O)cc(O)c12` [quercetin], which “MAO inhibitory activity by HPLC method” value (MAO) is on record?
A: not active

Q: Which “duration of MAO-A inhibition” value (MAO-A) does the source give for `Cc1cccc(N2CC(CO)OC2=O)c1` (stereo not drawn) [toloxatone] here?
A: only six hours

Q: Which IC50 (MAO-B) does the source give for `N#C/C(=C\CO[C@@H]1O[C@H](CO)[C@@H](O)[C@H](O)[C@H]1O)CO` [sarmentosin, 4-(beta-D-glucopyranosyloxy)-2-(hydroxymethyl-2-butenenitrile)] here?
A: ~1.45 µM

Q: And the “time of peak concentrations of sarmentosin in plasma” value [1]?
A: 120 min

Q: Which results are given for `NCCNC(=O)c1ccc(Cl)cn1` [lazabemide]?
A: inhibition of MAO-B in platelets (MAO-B in platelets; 30 min post dose): > 90%; time at which maximal inhibition subsides (MAO-B in platelets; post dose): 16 h; time of full restoration of enzyme activity (MAO-B in platelets; post dose): 48 h

Q: With `O=C(NCCN1CCOCC1)c1ccc(Cl)cc1` [Moclobemide] as the molecule, how does the elimination half-life [2] read?
A: 1 to 3 h

Q: And the “time to reach peak (plasma) concentrations” value [2]?
A: approximately 1 hours
